Reference: patent US7951788B2, “Method of treating cancer and other conditions or disease states using L-cytosine nucleoside analogs” (Yale University, priority 2005, dated 2011)

Legend:
[1] = tested on: colon 38 mouse tumor; assay: Experiment 1: growth of colon 38 tumor implanted in the flank of mice, drugs alone and combined with 5-FU/leucovorin; format: in vivo; details: FIG. 1; for effect on the anti-cancer activity of 5-FU/LV: combination with 5FU/LV 150 mg/kg each i.p. once on day one, nucleoside p.o. b.i.d. for 5 days (3TC, FTC 100 mg/kg; LFD4C 20 mg/kg); for growth of colon 38 mouse tumor (tumor volume as % of Day 1): drug alone; for growth of colon 38 mouse tumor (tumor volume as % of Day 1) / duration of the effect on colon 38 tumor growth: immunocompetent mice, p.o. b.i.d. for 5 days, 3TC and FTC 100 mg/kg, LFD4C 20 mg/kg
Procedure: (§1) In general, the following protocol was used to implant mice with tumor cell lines and to test drugs for the anti-cancer effect.
(§2) This tumor is passed from a solid tumor growing in mice. Several grams (assuming a gram per ml) are pressed through a sterile screen and suspended in a tissue culture media without phenol red or fetal calf serum (a balanced salt solution) at 2 ml/gram of tumor. Then 0.1 ml of this tumor suspension is implanted into the flank of the mouse. Ten days to two weeks after implantation (when the tumors could be measured with a caliper), unless otherwise indicated, the drug therapy was initiated.
(§3) In general, drugs are delivered according to the following schedule. Every day the mice are weighed to deter the amount to be injected and as an index of toxicity.
(§4) The Tumor Volume is calculated from the measurements by the formula: length (mm)×width (mm)×width (mm)×Π/6 as a % of Day 1.
This experiment was designed to determine the effect of 3TC, FTC or LFD4C alone and in combination with 5-Fluorouracil with leucovorin rescue on the growth of mouse tumor (colon 38) in immuno-competent mice. The drugs were administered to the mice according to the following schedule:
5FU/LV—150 mg/kg each i.p. once on day one
3TC—100 mg/kg p.o. b.i.d. for 5 days
FTC—100 mg/kg p.o. bid for 5 days
LFD4C—20 mg/kg p.o. b.i.d. for 5 days
Combination groups received both treatments as per above schedules.
In FIG. 1, the following legend applies:
3TC (100 mg/kg) p.o.b.i.d.×5 days;
FTC (100 mg/kg) p.o.b.i.d.×5 days;
LFd4C (20 mg/kg) p.o.b.i.d.×5 days;
Combination groups received both treatments as per above.

[2] = tested on: colon 38; assay: Experiment 2: enhancement of the anti-cancer effect of oxaliplatin on colon 38 growth in mice; format: in vivo, C57BL6 female mice; details: combination with oxaliplatin 10 mg/kg i.p. once on day 1, FIG. 2; for enhancement of the anti-tumor effect of oxaliplatin on colon 38: nucleoside p.o. b.i.d. days 1-5 (3TC, FTC 100 mg/kg; LFd4C 15 mg/kg per legend); for duration of the enhancing effect with oxaliplatin: nucleoside p.o. b.i.d. days 1-5
Procedure: as §1, §2, §3, §4
Experiment 2 tested the effects of 3TC, FTC and LFD4C (same schedule as above) on the enhancement of anti-cancer drug effect of oxaliplatin (10 mg/kg i.p., once on day 1) on colon 38 growth in C57BL6 female mice. […].
In FIG. 2, the following legend applies:
3TC and FTC (100 mg/kg) p.o.b.i.d. day 1-5;
LFd4C (15 mg/kg) p.o.b.i.d. days 1-5;
Oxaplatin (10 mg/kg) i.p. once on day 1;
Combination groups received both treatments as described above.

SMILES	effect on the anti-cancer activity of 5-FU/LV [1]	growth of colon 38 mouse tumor (tumor volume as % of Day 1) [1]	duration of the effect on colon 38 tumor growth [1]	enhancement of the anti-tumor effect of oxaliplatin on colon 38 [2]	duration of the enhancing effect with oxaliplatin [2]
Nc1nc(=O)n([C@@H]2CS[C@H](CO)O2)cc1F [FTC, emtricitabine]	significant (additive or synergistic)	slows down the growth	lasted well past the 5 day therapy	clearly enhanced	lasts well after the treatment is stopped
Nc1nc(=O)n([C@@H]2C=C[C@H](CO)O2)cc1F [LFD4C, Elvucitabine]	significant (additive or synergistic)	slows down the growth	lasted well past the 5 day therapy	clearly enhanced	lasts well after the treatment is stopped
